# According to patent US11535670B2, “Combination therapies of HDAC inhibitors and PD-L1 inhibitors” (HUYABIO International, LLC, priority 2016, dated 2022):
# System: MC38 murine colon carcinoma
# Assay: Example 3: second-line therapy of MC38 tumors progressing after first-line PD-1 inhibitor antibody, response rates
# Assay type: in vivo, C57BL/6 mice
# Details: second-line after failing PD-1 inhibitor antibody; HBI-8000 50 mg/kg p.o. qd×21; antibodies 5 mg/kg i.p. biwk×2 (Table 4: biwk × 3)
# Text: In this model, a proportion of the animals treated 1st line with the PD-1 checkpoint inhibitor antibody experience complete tumor regression. However, a similar proportion of animals treated 1st line with the PD-1 inhibitor antibody experience rapid tumor progression. The balance of the animals treated in this way experience slow tumor progression or stable disease, which is a result which approximates the situation in a number of human cancer patients receiving PD-1 inhibitor antibody therapy, i.e., they experience a transient partial response, including stable disease, but then develop resistance and rapidly progress, failing PD-1 inhibitor antibody therapy. In this example, the efficacy of HBI-8000 (DZ1) as a second-line therapy, alone and in combination with PDL-1 inhibitor antibody 10F.9G2 (anti-PDL-1), was evaluated for the ability to cause tumor growth delay (TGD) in animals which tumors progressed following PD-1 inhibitor antibody first line of therapy in the MC38 murine colon carcinoma syngeneic model in immunocompetent C57BL/6 mice.
# Female C57BL/6 mice bearing subcutaneous MC38 tumors (mean tumor volume: 114 mm^3 when treatment began) were treated with a first line of therapy of PD-1 inhibitor antibody treatment, administered intraperitoneally (i.p.) at 5 mg/kg, twice weekly for two weeks (biwk×2). […] Dosing began on Dl, which represented the day of recruitment and varied among mice (this was normalized for each group). The second line therapies were as follows. Vehicle was administered orally (p.o.). HBI-8000 was administered p.o. at 50 mg/kg. PD-1 inhibitor antibody and anti-PDL-1 were each administered intraperitoneally (i.p) at 5 mg/kg. Group 1 mice served as controls and received 0.2% carboxymethyl cellulose: 0.1% Tween 80 in deionized water (vehicle) once daily for twenty-one days (qd×21). Group 2 received HBI-8000 qd×21. Group 3 received a second course of PD-1 inhibitor antibody biwk×2. Group 4 received HBI-8000 qd×21 and PD-1 inhibitor antibody biwk×2. Group 5 received anti-PDL-1 biwk×2. Group 6 received HBI-8000 qd×21 and anti-PDL-1 biwk×2. […]
smiles,measurement,value
"Nc1cc(F)ccc1NC(=O)c1ccc(CNC(=O)/C=C/c2cccnc2)cc1 [HBI-8000, N-(2-amino-4-fluorophenyl)-4-[[[(2E)-1-oxo-3-(3-pyridinyl)-2-propen-1-yl]amino]methyl]benzamide]",Response rate: CR (complete response),20%
same,Response rate: NR (no response),40%
same,Response rate: PR (partial response),40%
